In US11771678B2 (NATIONAL UNIVERSITY CORPORATION KUMAMOTO UNIVERSITY, priority 2016, dated 2023):

Columns and labels:
[1] = tested on: methylmalonic acidemia-derived NPCs; experiment: cAMP production ability test with Forskolin (intracellular cAMP ELISA); assay type: cell-based, human; details: Forskolin 10 μmol/l, after 24 hours; compared with NPCs from normal iPS cells
Experimental: (3) On the occasion of performing measurement, a pretreatment of cells was carried out. Cells were detached from the culture plate, the number of cells was counted, and centrifugation was performed. After the centrifugation, the supernatant was suctioned, and the residue was suspended in a 0.1 M HCl solution at a concentration of 1×10^6/cells/mL. In the case of cells with a known cell count, a series of these operations was omitted, and 0.1 M HCl was introduced directly onto the culture plate while the cells were adhered. After suspending, the suspension was incubated at room temperature for 10 minutes and then was centrifuged at 600 g/5 minutes. […] (4) For the measurement, measurement was carried out through a series of the following processes. • A neutralizing liquid (Neutralizing reagent) was introduced in an amount of 50 μL into wells other than total activity (TA) and blanks. • Subsequently, 100 μL of a standard diluent was added to non-specific binding (NBS) and BO (0 pmol/mL standard). Furthermore, 50 μL of a standard diluent was added to the wells of NBS. […] The light absorbance at 405 nm was measured. […]

[2] = tested on: lethal methylmalonic acid seizure model; experiment: In vivo test using survival rate as index, lethal methylmalonic acid seizure model; parameters: species or system C57BL/6J mice; details: db-cAMP 10 μg/kg/dose subcutaneous
Experimental: An evaluation of administration of candidate drugs was carried out using the survival rate as an index, using a lethal methylmalonic acid seizure model.
1. A […] methylmalonic acid solution was intraperitoneally administered to eight-week old C57BL/6J mice at a dose of 20 ml/kg, and thus a lethal methylmalonic acid seizure model was produced.
2. After one day, after two days, and after three days from the administration of methylmalonic acid, subcutaneous administration of db-cAMP (10 μg/kg/dose) as a candidate drug was performed, and a comparison of the survival rates in an administered group and a non-administered group was carried out.

Adenylate cyclase = Adenylate cyclase inhibition by methylmalonic acid: cAMP concentration in B42NPCs; assay type: cell-based, human; details: methylmalonic acid 50 μM or 100 μM in culture fluid, 24 hours
Experimental: cAMP is produced from ATP by Adenylate cyclase. From this point of view, an investigation was conducted on whether methylmalonic acid would inhibit Adenylate cyclase.

[3] = tested on: Adenylate cyclase, CREB, phosphorylated CREB; experiment: Protein expression analysis by Western Blotting in B42NPCs; assay type: cell-based, human; details: presence or absence of methylmalonic acid
Experimental: 2. Meanwhile, the protein expression analysis shown in FIG. 6 was carried out based on the existing Western Blotting method.

C=C[C@@]1(C)CC(=O)[C@]2(O)[C@@]3(C)[C@@H](O)CCC(C)(C)[C@@H]3[C@H](O)[C@H](OC(C)=O)[C@@]2(C)O1 [Forskolin, (3R,4aR,5S,6S,6aS,10S,10aR,10bS)-6,10,10b-trihydroxy-3,4a,7,7,10a-pentamethyl-1-oxo-3-vinyldodecahydro-1H-benzo[f]chromen-5-yl acetate]
reactivity to Forskolin (intracellular cAMP concentration) [1]: decrease in reactivity to Forskolin was recognized

CCCC(=O)Nc1ncnc2c1ncn2[C@@H]1O[C@@H]2COP(=O)(O)O[C@H]2[C@H]1OC(=O)CCC [db-cAMP, dibutyl-cAMP]
vital prognosis based on seizure originating from methylmalonic acidemia [2]: markedly ameliorated | survival rate after two days ([2]; non-administered group 14.7%, p<0.001): 75.0% | survival rate one day after the administration of methylmalonic acid ([2]; non-administered group 35.3%): 85.0%

CC(C(=O)O)C(=O)O [methylmalonic acid]
cAMP production power (Adenylate cyclase): as the methylmalonic acid concentration in the culture fluid is higher, the cAMP production power is decreased | total amounts of protein expression of Adenylate cyclase and CREB [3]: constant
